Measured values taken from patent US7265135B2 (Ortho-McNeil Pharmaceutical, Inc., priority 2001, dated 2007).

molecular target: T1, human histamine H3 receptor (Homo sapiens, UniProt Q9Y5N1); test: [3H]-N-methylhistamine binding assay; conditions: membranes of histamine H3 receptor-expressing SK-N-MC cells; 0.8 nM [3H]-N-methylhistamine; 45 min at 25° C.; Ki=(IC50)/(1+([L]/(KD))
T1 construct: One μg supercoiled H3 receptor cDNA was added to the cells and mixed; expressed in transfected cells; membranes prepared from cell pellets
Description: The histamine H3 receptor binding effectiveness of compounds of the present invention was determined using the human histamine H3 receptor, Lovenberg et al Mol. Pharmacol. 1999, 1107. Screening using the human receptor is particularly important for the identification of new therapies for the treatment of human disease. Prior binding assays, for example, relied on rat synaptosomes (Garbarg et al J. Pharmacol. Exp. Ther. 1992, 263, 304), rat cortical membranes (West et al Mol. Pharmacol. 1990, 610), and guinea pig brain (Korte et al Biochem. Biophys. Res. Commun. 1990, 978). A recent comparative study comparing human H3 receptor activity with H3 receptors from rodent and primate have shown significant differences in the respective pharmacology of the rodent and primate receptors to the human receptor. (West et al Eur. J. Pharmacol. 1999, 233; Lovenberg et al., J. Pharmacol. Exp. Ther. 2000, 293, 771-778.)
A 10 cm tissue culture dish with a confluent monolayer of SK-N-MC cells was split two days prior to transfection. Using sterile technique the media was removed and the cells were detached from the dish by the addition of trypsin. One fifth of the cells were then placed onto a new 10 cm dish. Cells were grown in a 37° C. incubator with 5% CO2 in Minimal Essential Media Eagle with 10% Fetal Bovine Serum. After two days cells were approximately 80% confluent. These were removed from the dish with trypsin and pelleted in a clinical centrifuge. The pellet was then re-suspended in 400 μL complete media and transferred to an electroporation cuvette with a 0.4 cm gap between the electrodes (Bio-Rad #165-2088). One μg supercoiled H3 receptor cDNA was added to the cells and mixed. The voltage for the electroporation was set at 0.25 kV, the capacitance is set at 960 μF. After electroporation the cells were diluted into 10 mL complete media and plated onto four 10 cm dishes. Because of the variability in the efficiency of electroporation four different concentrations of cells were plated. The ratios used were; 1:20, 1:10, 1:5, with the remainder of the cells being added to the fourth dish. The cells were allowed to recover for 24 h before adding the selection media (complete media with 600 μg/mL G418). After 10 days dishes were analyzed for surviving colonies of cells. Dishes with well isolated colonies were used. Cells from individual colonies were isolated and tested. SK-N-MC cells were used because they give efficient coupling for inhibition of adenylate cyclase. The clones that gave the most robust inhibition of adenylate cyclase in response to histamine were used for further study.
Cell pellets from histamine H3 receptor-expressing SK-N-MC cells were homogenized in 20 mM Tris HCl/0.5 mM EDTA. Supernatants from a 800 g spin were collected, recentrifuged at 30,000 g for 30 minutes. Pellets were re-homogenized in 50 mM Tris/5 mM EDTA (pH 7.4). Membranes were incubated with 0.8 nM [^3H]-N-methylhistamine plus/minus test compounds for 45 min at 25° C. and harvested by rapid filtration over GF/C glass fiber filters (pretreated with 0.3% polyethylenimine) followed by four washes with ice cold buffer. Filters were dried, added to 4 mL scintillation cocktail and then counted on a liquid scintillation counter. Non-specific binding was defined with 10 μM histamine. PKi values were calculated based on a KD of 800 pM and a ligand concentration ([L]) of 800 pM according to the formula: Ki=(IC50)/(1+([L]/(KD))

T1 sequence (Q9Y5N1 whole entry): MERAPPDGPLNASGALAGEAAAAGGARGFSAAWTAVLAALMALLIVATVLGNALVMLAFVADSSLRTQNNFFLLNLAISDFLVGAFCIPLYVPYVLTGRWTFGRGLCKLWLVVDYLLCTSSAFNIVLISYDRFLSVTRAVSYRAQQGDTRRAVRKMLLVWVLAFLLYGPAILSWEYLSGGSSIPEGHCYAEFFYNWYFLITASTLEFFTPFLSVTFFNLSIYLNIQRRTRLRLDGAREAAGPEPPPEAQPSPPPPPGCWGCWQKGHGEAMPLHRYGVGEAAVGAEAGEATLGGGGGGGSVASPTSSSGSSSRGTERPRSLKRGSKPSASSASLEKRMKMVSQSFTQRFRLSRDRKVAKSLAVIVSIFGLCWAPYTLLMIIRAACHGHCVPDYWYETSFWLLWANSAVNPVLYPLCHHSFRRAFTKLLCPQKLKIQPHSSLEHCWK

| SMILES | Ki [nM] |
| --- | --- |
| CC(C)N1CCC(COc2ncc(C(O)c3ccc(C#N)cc3)n2C)CC1 (stereo not shown) [4-{Hydroxy-[2-(1-isopropyl-piperidin-4-ylmethoxy)-3-methyl-3H-imidazol-4-yl]-methyl}-benzonitrile] | 7.6 |
| CC(C)N1CCC(COc2ncc(C(=O)c3ccc(Br)cc3)n2C)CC1 [(4-Bromophenyl)-[2-(1-isopropyl-piperidin-4-ylmethoxy)-3-methyl-3H-imidazol-4-yl]-methanone] | 5.3 |
| CN(C)CCCSc1ncc(C(=O)c2ccccc2)n1C [[2-(3-Dimethylamino-propylsulfanyl)-3-methyl-3H-imidazol-4-yl]-phenyl-methanone] | 4 |
| CN(C)CCCSc1ncc(C(=O)c2ccc(Cl)cc2)n1C [(4-Chlorophenyl)-[2-(3-dimethylamino-propylsulfanyl)-3-methyl-3H-imidazol-4-yl]-methanone] | 2 |
| CN(C)CCCSc1ncc(C(=O)c2ccc(Br)cc2)n1C [(4-Bromophenyl)-[2-(3-dimethylamino-propylsulfanyl)-3-methyl-3H-imidazol-4-yl]-methanone] | 1.6 |
| CC(C)N1CCC(COc2ncc(C(=O)c3cccc(Cl)c3)n2C)CC1 [(3-Chlorophenyl)-[2-(1-isopropyl-piperidin-4-ylmethoxy)-3-methyl-3H-imidazol-4-yl]-methanone] | 2.8 |
| CCC(C)N1CCC(COc2ncc(C(=O)c3ccc(Br)cc3)n2C)CC1 (stereo not shown) [(4-Bromophenyl)-[2-(1-sec-butyl-piperidin-4-ylmethoxy)-3-methyl-3H-imidazol-4-yl]-methanone] | 9 |
| CC(C)N1CCC(COc2ncc(C(=O)c3ccc([N+](=O)[O-])cc3)n2C)CC1 [[2-(1-Isopropyl-piperidin-4-ylmethoxy)-3-methyl-3H-imidazol-4-yl]-(4-nitro-phenyl)-methanone] | 4.6 |
| Cn1c(CN2CCCCC2)cnc1OCCCN1CCCCC1 [[3-Methyl-2-(3-piperidin-1-yl-propoxy)-3H-imidazol-4-yl]-piperidin-1-yl-methane] | 36.4 |
| CC(C)N1CCC(Sc2ncc(C(=O)c3ccc(Cl)cc3)n2C)CC1 [(4-Chlorophenyl)-[2-(1-isopropyl-piperidin-4-ylsulfanyl)-3-methyl-3H-imidazol-4-yl]-methanone] | 3 |
| CC(C)N1CCC(COc2ncc(C(=O)c3ccccc3Cl)n2C)CC1 [(2-Chlorophenyl)-[2-(1-isopropyl-piperidin-4-ylmethoxy)-3-methyl-3H-imidazol-4-yl]-methanone] | 1.3 |
| CN1CCC(Sc2ncc(C(=O)c3ccc(Cl)cc3)n2C)CC1 [(4-Chloro-phenyl)-[3-methyl-2-(1-methyl-piperidin-4-ylsulfanyl)-3H-imidazol-4-yl]-methanone] | 7 |
| Cn1c(C(=O)c2ccc(Br)cc2)cnc1SCCCN1CCCCC1 [(4-Bromophenyl)-[3-methyl-2-(3-piperidin-1-yl-propylsulfanyl)-3H-imidazol-4-ylmethanone] | 7.5 |
| CN(C)CCC[S+]([O-])c1ncc(C(=O)c2ccc(Cl)cc2)n1C (stereo not shown) [(4-Chloro-phenyl)-[2-(3-dimethylamino-propane-1-sulfinyl)-3-methyl-3H-imidazol-4-yl]-methanone] | 315 |
| Cn1c(C(=O)c2ccc(Cl)cc2)cnc1SCCCN1CCCCC1 [(4-Chlorophenyl)-[3-methyl-2-(3-piperidin-1-yl-propylsulfanyl)-3H-imidazol-4-yl]-methanone] | 3.1 |
| CC(C)N1CCC(COc2ncc(C(=O)c3cc(Cl)cc(Cl)c3)n2C)CC1 [(3,5-Dichlorophenyl)-[2-(1-isopropyl-piperidin-4-ylmethoxy)-3-methyl-3H-imidazol-4-yl]-methanone] | 4 |
| CC(C)N1CCC(Oc2ncc(C(=O)c3ccc(Cl)cc3)n2C)CC1 [(4-Chlorophenyl)-[2-(1-isopropyl-piperidin-4-yloxy)-3-methyl-3H-imidazol-4-yl]-methanone] | 25 |
| CN(C)CCSc1ncc(C(=O)c2ccc(Cl)cc2)n1C [(4-Chloro-phenyl)-[2-(2-dimethylamino-ethylsulfanyl)-3-methyl-3H-imidazol-4-yl]methanone] | 98 |
| CC(C)N1CCC(COc2ncc(C(=O)c3ccc(F)cc3)n2C)CC1 [(4-Fluorophenyl)-[2-(1-isopropyl-piperidin-4-ylmethoxy)-3-methyl-3H-imidazol-4-yl]-methanone] | 2.5 |
| Cn1c(C(=O)c2cccc3ccccc23)cnc1OCCCN1CCCCC1 [[3-Methyl-2-(3-piperidin-1-yl-propoxy)-3H-imidazol-4-yl]-naphthalen-1-yl-methanone] | 79 |
| CCN1CCC(COc2ncc(C(=O)c3ccc(Br)cc3)n2C)CC1 [(4-Bromophenyl)-[2-(1-ethyl-piperidin-4-ylmethoxy)-3-methyl-3H-imidazol-4-yl]-methanone] | 6.6 |
| CN(C)CCCSc1ncc(Cc2ccc(Cl)cc2)n1C [{3-[5-(4-Chlorobenzyl)-1-methyl-1H-imidazol-2-ylsulfanyl]-propyl}-dimethyl-amine] | 22 |
| CC(C)N1CCC(COc2ncc(C(=O)c3ccc(Cl)cc3)n2C)CC1 [(4-Chlorophenyl)-[2-(1-isopropylpiperidin-4-ylmethoxy)-3-methyl-3H-imidazol-4-yl]-methanone] | 3.7 |
| CN1CCCC1CCSc1ncc(C(=O)c2ccc(Cl)cc2)n1C (stereo not shown) [(4-Chloro-phenyl)-{3-methyl-2-[2-(1-methyl-pyrrolidin-2-yl)-ethylsulfanyl]-3H-imidazol-4-yl}-methanone] | 2 |
| CN(C)CCCSc1ncc(C(=NO)c2ccc(Cl)cc2)n1C (mixture of isomers) [(4-Chlorophenyl)-[2-(3-dimethylamino-propylsulfanyl)-3-methyl-3H-imidazol-4-yl]-methanone oxime] | 3.2 |
| CC(C)N1CCC(COc2ncc(C(=O)c3ccc(C(F)(F)F)cc3)n2C)CC1 [[2-(1-Isopropyl-piperidin-4-ylmethoxy)-3-methyl-3H-imidazol-4-yl]-(4-trifluoromethyl-phenyl)-methanone] | 4.1 |

same assay, conditions: value printed in text of Example XVI Step B, no unit at the place

| SMILES | Ki [nM] |
| --- | --- |
| CN(C)CCCS(=O)(=O)c1ncc(C(=O)c2ccc(Cl)cc2)n1C [(4-Chlorophenyl)-[2-(3-dimethylamino-propane-1-sulfonyl)-3-methyl-3H-imidazol-4-yl]-methanone] | 10000 |
| Cn1c(C(=O)c2ccc(Cl)cc2)cnc1S(=O)(=O)CCC[N+](C)(C)[O-] | 10000 |
